PMC12472494, “Anticonvulsant Potential of 1-Aryl-6,7-dimethoxy-1,2,3,4-tetrahydroisoquinolines: Insights from Strychnine and Nicotine Models in In Vivo and In Silico Studies” (Pharmaceuticals, 2025)
Entries after “also recorded” stand apart in the source; their conditions may differ.

Experiments:
[1] = system: strychnine-induced seizures; assay: Strychnine-induced seizure model; format: in vivo, mice; conditions: for responders at 1 mg/kg: Mus musculus, read-out: Survival Rate; for responders at 1 mg/kg / Duration of Tremor and Seizures / Latency to Tremor and Seizure Onset: oral dose 1.0 mg/kg 60 min before strychnine 1.5 mg/kg s.c., N = 10; for Duration of Tremor and Seizures / Latency to Tremor and Seizure Onset: mean ± SD; for survival rate of strychnine-poisoned animals: dose not given
From the text: (§1) The anticonvulsant effects of the examined substances were studied in male white mice weighing 18–22 g, divided into the following groups: control (including the strychnine and nicotine groups), carbamazepine group, Convulex group, and experimental groups (one for each tested substance). Simple randomization (“heads or tails” coin toss) was used to assign animals to groups. Each group contained 10 animals. Healthy animals were included in the experiments after a 14-day quarantine period. No animals were excluded from the study. Convulsant agents were administered subcutaneously at doses of 10.0 mg/kg for nicotine (Sigma–Aldrich, Saint Louis, MO, USA) and 1.5 mg/kg for strychnine (Sigma–Aldrich, Saint Louis, MO, USA), 60 min after the oral administration of the test substances at doses ranging from 0.1 to 10 mg/kg. The onset time, duration of tremors and seizures, and survival rate of the animals were recorded. Carbamazepine (Darnitsa, Kiev, Ukraine) at doses of 5.0–10.0 mg/kg and Convulex (valproate) (Gerot Pharmazeutika GmbH, Vienna, Austria) at doses of 75.0–100.0 mg/kg (based on the therapeutic anticonvulsant dose) were used as reference drugs.
(§2) Data were presented as mean ± SD for different groups. Statistical analysis was performed using OriginPro 9.0 (MicroCal Software, Northampton, MA, USA), with p < 0.05 considered statistically significant.

[2] = set-up: method as in PMID 36677539; conditions: per os; cited from earlier work
[3] = system: tremorogenic and convulsive actions of nicotine; assay: Nicotine-induced tremor and seizure model; format: in vivo, mice; conditions: for responders at 1 mg/kg: Mus musculus, po, read-out: Survival Rate; for survival rate of the animals increased to: at low doses (0.1–5 mg/kg); for activity against tremorogenic and convulsive actions of nicotine versus reference drugs (in words): doses of 0.1–5 mg/kg; for Duration of Seizures / Latency to Seizure Onset: oral dose 1.0 mg/kg 60 min before nicotine 10 mg/kg s.c., mean ± SD, N = 10; for survival of poisoned animals compared to carbamazepine and valproate (in words): mouse, in vivo
From the text: as §1, §2

Row | SMILES | responders at 1 mg/kg [1] [%] | Duration of Tremor and Seizures [1] [min] | Latency to Tremor and Seizure Onset [1] [min] | LD50 [2] | responders at 1 mg/kg [3] [%] | survival rate of the animals increased to [3] | activity against tremorogenic and convulsive actions of nicotine versus reference drugs (in words) [3] | Duration of Seizures [3] [min] | Latency to Seizure Onset [3] [min] | survival of poisoned animals compared to carbamazepine and valproate (in words) [3] | survival rate of strychnine-poisoned animals [1] | survival rate in nicotine-poisoned animals ([3]; from a dose of 0.1 mg/kg) [%] | effect on the duration of the seizures ([1]; doses of 1–10 mg/kg) | increase of animal survival ([1]; doses of 1–10 mg/kg) [%] | extension of the latency period for seizures ([1]; doses of 1–10 mg/kg, versus control) | activity against strychnine-induced seizures (in words) ([1]; ranking within the series)
1 | COc1cc2c(cc1OC)C(c1ccc3c(c1)OCO3)NCC2 (centres unmarked) [Compound 29, 1-(3′,4′-Methylenedioxyphenyl)-6,7-dimethoxy-1,2,3,4-tetrahydroisoquinoline] | 50 | 0.32 ± 0.9 | 12.5 ± 1.8 | 267.2 (226.3 ± 301.1) mg/kg | 90 | 90–100% | comparable activity to the reference drugs | 3.7 ± 0.9 | 2.5 ± 0.07 |  |  |  |  |  |  | 
2 | COc1cc(Br)c(C2NCCc3cc(OC)c(OC)cc32)cc1O (centres unmarked) [Compound 24, 1-(2′-Bromo-4′-methoxy-5′-hydroxyphenyl)-6,7-dimethoxy-1,2,3,4-tetrahydroisoquinoline] | 30 | 0.32 ± 0.4 | 10.2 ± 1.2 | 546.9 (516.3 ± 571.6) mg/kg | 70 |  |  | 7.3 ± 0.3 | 2.1 ± 0.09 | did not improve the survival |  |  |  |  |  | 
3 | COc1cc(C2NCCc3cc(OC)c(OC)cc32)ccc1O (centres unmarked) [Compound 21, 1-(4′-Hydroxy-3′-methoxyphenyl)-6,7-dimethoxy-1,2,3,4-tetrahydroisoquinoline] | 40 | 0.52 ± 0.4 | 15.4 ± 1.5 | 1663.6 (1623.1 ± 1629.1) mg/kg | 60 |  |  | 14.3 ± 0.6 | 1.8 ± 0.04 |  |  |  |  |  |  | 
4 | COc1cc2c(cc1OC)C(c1cc3c(cc1Cl)OCO3)NCC2 (centres unmarked) [Compound 31, 1-(4′,5′-Methylenedioxy-2′-chlorophenyl)-6,7-dimethoxy-1,2,3,4-tetrahydroisoquinoline] | 30 | 0.59 ± 0.5 | 13.6 ± 1.9 | 520.8 (491.9 ± 545.4) mg/kg | 90 | 90–100% | comparable activity to the reference drugs | 10.7 ± 0.9 | 2.3 ± 0.08 |  |  |  |  |  |  | 
5 | COc1cc2c(cc1OC)C(c1cc(Br)ccc1O)NCC2 (centres unmarked) [Compound 17, 1-(2′-Hydroxy-5′-bromophenyl)-6,7-dimethoxy-1,2,3,4-tetrahydroisoquinoline] | 40 | 0.61 ± 0.5 | 15.7 ± 1.6 | 297.3 (270.2 ± 323.7) mg/kg | 70 |  |  | 8.1 ± 0.8 | 2.1 ± 0.07 |  |  |  |  |  |  | 
6 | COc1cc2c(cc1OC)C(c1ccc(Br)cc1)NCC2 (centres unmarked) [Compound 15, 1-(4′-Bromophenyl)-6,7-dimethoxy-1,2,3,4-tetrahydroisoquinoline] | 40 | 0.50 ± 0.5 | 12.5 ± 1.2 | 422.0 (399.4 ± 445.3) mg/kg | 70 |  |  | 8.3 ± 0.3 | 2.2 ± 0.07 |  | no more than 40% |  |  |  |  | 
7 | COc1cc2c(cc1OC)C(c1ccccc1OC)NCC2 (centres unmarked) [Compound 6, 1-(2′-Methoxyphenyl)-6,7-dimethoxy-1,2,3,4-tetrahydroisoquinoline] | 30 | 0.50 ± 0.4 | 15.7 ± 1.7 | 286.7 (256.9 ± 318.7) mg/kg | 100 | 90–100% | comparable activity to the reference drugs | 10.5 ± 0.5 | 2.4 ± 0.03 |  | no more than 40% | 90 |  |  |  | 
8 | COc1cc2c(cc1OC)C(c1cccc(Br)c1)NCC2 (centres unmarked) [Compound 14, 1-(3′-Bromophenyl)-6,7-dimethoxy-1,2,3,4-tetrahydroisoquinoline] | 60 | 0.35 ± 0.8 | 18.5 ± 1.5 | 446.7 (416.2 ± 471.3) mg/kg | 90 | 90–100% | comparable activity to the reference drugs | 2.5 ± 0.4 | 2.8 ± 0.02 |  |  |  |  |  |  | 
9 | COc1cc2c(cc1OC)C(c1cccc(OC)c1[N+](=O)[O-])NCC2 (centres unmarked) [Compound 23, 1-(3′-Methoxy-2′-nitrophenyl)-6,7-dimethoxy-1,2,3,4-tetrahydroisoquinoline] | 30 | 0.60 ± 0.4 | 14.6 ± 1.4 | 315.4 (281.0 ± 344.2) mg/kg | 20 |  |  | 5.4 ± 0.9 | 1.5 ± 0.08 |  |  |  |  |  |  | 
10 | COc1cc2c(cc1OC)C(c1cccc(Cl)c1)NCC2 (centres unmarked) [Compound 11, 1-(3′-Chlorophenyl)-6,7-dimethoxy-1,2,3,4-tetrahydroisoquinoline] | 70 | 0.46 ± 0.5 | 15.5 ± 1.2 | 232.4 (211.8 ± 251.1) mg/kg | 70 |  |  | 8.3 ± 0.3 | 2.2 ± 0.07 |  |  |  |  |  |  | 
11 | COc1cc2c(cc1OC)C(c1ccccc1O)NCC2 (centres unmarked) [Compound 3, 1-(2′-Hydroxyphenyl)-6,7-dimethoxy-1,2,3,4-tetrahydroisoquinoline] | 60 | 0.29 ± 0.6 | 14.5 ± 1.7 | 365.3 (326.1 ± 394.5) mg/kg | 90 | 90–100% | comparable activity to the reference drugs | 9.0 ± 0.4 | 2.6 ± 0.08 |  |  |  |  |  |  | 
12 | COc1ccc(C2NCCc3cc(OC)c(OC)cc32)cc1O (centres unmarked) [Compound 20, 1-(3′-Hydroxy-4′-methoxyphenyl)-6,7-dimethoxy-1,2,3,4-tetrahydroisoquinoline] | 90 | 0.63 ± 0.7 | 18.2 ± 1.4 | 964.8 (916.5 ± 998.2) mg/kg | 70 |  |  | 11.0 ± 0.7 | 2.8 ± 0.07 |  | ~90% |  | minimal effect | 90 | 27–86% | most active; also recorded: highest activity
13 | COc1cc2c(cc1OC)C(c1ccccc1[N+](=O)[O-])NCC2 (centres unmarked) [Compound 7, 1-(2′-Nitrophenyl)-6,7-dimethoxy-1,2,3,4-tetrahydroisoquinoline] | 40 | 0.32 ± 0.7 | 14.2 ± 1.7 | 948.9 (916.8 ± 975.8) mg/kg | 70 |  |  | 7.6 ± 0.8 | 2.3 ± 0.07 |  |  |  |  |  |  | 
14 | COc1cc2c(cc1OC)C(c1ccccc1Cl)NCC2 (centres unmarked) [Compound 10, 1-(2′-Chlorophenyl)-6,7-dimethoxy-1,2,3,4-tetrahydroisoquinoline] | 30 | 0.60 ± 0.4 | 17.2 ± 1.7 | 264.2 (224.8 ± 293.9) mg/kg | 70 |  |  | 9.2 ± 0.9 | 2.2 ± 0.03 |  |  |  |  |  |  | 
15 | COc1cc2c(cc1OC)C(c1cc(Br)c(O)c(OC)c1)NCC2 (centres unmarked) [Compound 28, 1-(5′-Bromo-4′-hydroxy-3′-methoxyphenyl)-6,7-dimethoxy-1,2,3,4-tetrahydroisoquinoline] | 20 | 0.34 ± 0.8 | 15.5 ± 1.5 | 1532.7 (1471.5 ± 1579.5) mg/kg | 70 |  |  | 9.2 ± 0.4 | 2.7 ± 0.04 | did not improve the survival |  |  |  |  |  | 
